pEC50: −log10 of the molar value.
System: SMN2-linked luciferase-reporter gene construct
Test: SMN Splice Reporter Assay (SMN2-linked luciferase reporter)
Assay type: cell-based
Details: for Fold Increase: fold-increase of luciferase over baseline reading of transformed cells without any test compound; for pEC50: cervical carcinoma cell lines, SMN2 splice luciferase reporter
Source text: As previously discussed, SMN1 is the gene deleted in SMA patients; the SMN2 gene remains intact in both SMA and normal patients. Therefore, SMN2 provides a potential means of increasing SMN production in SMA patients and is, thus, a target for developing SMA treatments. SMN2 is identical to SMN1 with the exception of a single base pair change that results in reduced expression of the gene. The reduction is based on the creation of an alternatively spliced RNA that produces an unstable protein carrying a deletion of exon 7. Both full length SMN and exon 7 deleted SMN are produced by the SMN2 gene via alternative RNA splicing, but the major product is the unstable deleted form.
Cervical carcinoma cell lines were transformed with a SMN2-linked luciferase-reporter gene construct. The reporter is designed to detect shifts in the alternative splicing of SMN2 sequences. In particular, the reporter is constructed as a fusion of the alternatively spliced sequences of the SMN2 gene and the luciferase gene. Luciferase sequences are in the correct translational reading frame only when the SMN2 sequences are spliced according to the normal SMN1 mechanism (e.g., splicing to include exon 7), which allows for translation of the stable SMN protein. Compounds were tested in the assay by administering the compound to the cell line and detecting an increase in the luciferase activity. The assay is described in greater detail in Zhang et al., Gene Ther., 8: 1532-8 (2001). Compounds were administered as described in Lunn et al, Chem. & Biol, 11: 1489-1493 (2004).
The results are reported as a fold-increase over a baseline reading of transformed cells without any test compound. The EC50 value also is reported in Table 1 for some exemplary compounds of the invention.

For `Cc1cc2ccc(N3Cc4ccc(Cl)cc4C3=O)cc2n1C` [Example 124861], the “Fold Increase” value was 1.268.

`CCCc1ccc2c(c1)C(=O)N(c1ccc3c(c1)cc(C)n3C(C)C)C2` [Example 125601] was tested, and the “Fold Increase” value was 1.027.

`COc1ccc2c(c1)C(=O)N(c1ccc3scnc3c1)C2` [Example 120785] was tested, and the pEC50 was 7.23 and the “Fold Increase” value was 1.353.

For `Cn1ccc2cc(N3Cc4ccc(OCC(F)(F)F)cc4C3=O)ccc21` [Example 122043], the pEC50 was 6.27 and the “Fold Increase” value was 1.341.

In the case of `COc1ccc2c(c1)C(=O)N(c1ccc3sc(C)nc3c1)C2` [Example 120593], the pEC50 was 7.85 and the “Fold Increase” value was 1.322.

With `COc1ccc2c(c1)C(=O)N(c1cc3cc[nH]c3cn1)C2` [Example 121514] the “Fold Increase” value was 1.172.

In the case of `O=C1c2cc(O)ccc2CN1c1ccc2ccsc2c1` [Example 122556], the pEC50 was 6.86 and the “Fold Increase” value was 1.671.

In the case of `CC(=O)Nc1cccc2c1CN(c1ccc3c(ccn3C)c1)C2=O` [Example 121074], the “Fold Increase” value was 1.078.

`Cn1ccc2cc(N3Cc4ccc(-c5ccccc5)cc4C3=O)ccc21` [Example 120288] was tested, and the pEC50 was 6.39 and the “Fold Increase” value was 1.364.

With `CC(=O)Nc1cccc2c1C(=O)N(c1ccc3c(ccn3C)c1)C2` [Example 121081] the pEC50 was 6.75 and the “Fold Increase” value was 1.581.

In the case of `CN(C)c1ccc2c(c1)C(=O)N(c1ccc3ccsc3c1)C2` [Example 122038], the pEC50 was 7.42 and the “Fold Increase” value was 1.592.

With `COc1ccc2c(c1)C(=O)N(c1ccc3c(c1)NC(=O)CO3)C2` [Example 119516] the “Fold Increase” value was 1.182.

`O=C1c2cc(OC(F)F)ccc2CN1c1ccc2c(c1)CCC2` [Example 119337] was tested, and the pEC50 was 6.80 and the “Fold Increase” value was 1.66.

For `O=C1c2cc(O)ccc2CN1c1ccc2sccc2c1` [Example 122430], the pEC50 was 7.07 and the “Fold Increase” value was 1.769.

With `COc1ccc(-c2ccc3c(c2)C(=O)N(c2ccc4ccn(C)c4c2)C3)cc1` [Example 122315] the “Fold Increase” value was 1.091.

For `COc1ccc2c(c1)C(=O)N(c1ccc3ccn(CC#N)c3c1)C2` [Example 120603], the pEC50 was 5.56 and the “Fold Increase” value was 1.199.

With `CN1CCN(c2ccc3c(c2)C(=O)N(c2ccc4c(ccn4C)c2)C3)CC1` [Example 123588] the “Fold Increase” value was 1.183.

`Cn1ccc2cc(N3Cc4ccc(OC5CCCC5)cc4C3=O)ccc21` [Example 121929] was tested, and the pEC50 was 7.08 and the “Fold Increase” value was 1.316.

In the case of `COc1ccc2c(c1)C(=O)N(c1ccc3nc[nH]c3c1)C2` [Example 119866], the pEC50 was 6.38 and the “Fold Increase” value was 1.313.

For `COc1ccc2c(c1)CN(c1ccc3sccc3c1)C2=O` [Example 121643], the pEC50 was 7.35 and the “Fold Increase” value was 1.778.

`Cn1ccc2cc(N3Cc4ccc(S(C)(=O)=O)cc4C3=O)ccc21` [Example 121790] was tested, and the pEC50 was 6.25 and the “Fold Increase” value was 1.336.

For `Cn1ccc2ccc(N3Cc4c(Cl)cccc4C3=O)cc21` [Example 120788], the “Fold Increase” value was 1.25.

In the case of `COc1ccc2c(c1)C(=O)N(c1ccc3ccn(CCN)c3c1)C2` [Example 121080], the “Fold Increase” value was 1.163.

In the case of `CC=Cc1ccc2c(c1)C(=O)N(c1ccc3c(ccn3C)c1)C2` [Example 119520], the pEC50 was 7.35 and the “Fold Increase” value was 1.54.

`Cc1ccc2c(c1)C(=O)N(c1ccc3c(c1)cc(C)n3C)C2` [Example 123015] was tested, and the pEC50 was 7.28 and the “Fold Increase” value was 1.43.

With `CCCOc1ccc2c(c1)C(=O)N(c1ccc3ccn(C)c3c1)C2` [Example 124325] the pEC50 was 6.84 and the “Fold Increase” value was 1.69.

With `O=C1c2ccccc2CN1c1ccc2c(c1)OC(F)(F)O2` [Example 116485] the pEC50 was 5.65 and the “Fold Increase” value was 1.202.

In the case of `O=C1c2cc(OC(F)F)ccc2CN1c1ccc2c(ccn2C(F)F)c1` [Example 121787], the “Fold Increase” value was 1.221.

With `CC(C)C(=O)Nc1ccc2c(c1)C(=O)N(c1ccc3c(ccn3C)c1)C2` [Example 124864] the pEC50 was 6.56 and the “Fold Increase” value was 1.519.

In the case of `CCCOc1ccc2c(c1)C(=O)N(c1ccc3sccc3c1)C2` [Example 122551], the “Fold Increase” value was 1.235.

`CCCOc1ccc2c(c1)C(=O)N(c1ccc3c(ccn3C)c1)C2` [Example 121785] was tested, and the pEC50 was 7.10 and the “Fold Increase” value was 1.29.

For `Cn1ccc2cc(N3Cc4ccccc4C3=O)ccc21` [Example 120287], the pEC50 was 6.80 and the “Fold Increase” value was 1.433.

With `Cn1ccc2cc(N3Cc4ccc(OC(F)(F)C(F)Cl)cc4C3=O)ccc21` (stereo not shown) [Example 122180] the pEC50 was 7.04 and the “Fold Increase” value was 1.64.

`COc1ccc2c(c1)C(=O)N(c1ccc3nccc(OC)c3c1)C2` [Example 123205] was tested, and the “Fold Increase” value was 1.227.

With `Cn1ccc2cc(N3Cc4ccc(F)cc4C3=O)ccc21` [Example 121925] the pEC50 was 6.71 and the “Fold Increase” value was 1.347.

`COc1ccc2c(c1)C(=O)N(c1ccc3c(c1)c(C)cn3C)C2` [Example 122184] was tested, and the pEC50 was 6.39 and the “Fold Increase” value was 1.639.

With `COc1ccc2c(c1)C(=O)N(c1ccc3nc(OC)ncc3c1)C2` [Example 122432] the pEC50 was 5.94 and the “Fold Increase” value was 1.32.

In the case of `COc1ccc2c(c1)C(=O)N(c1ccc3c(N(C)C)ccnc3c1)C2` [Example 123713], the “Fold Increase” value was 1.072.

`CN1CCN(c2ccc3c(c2)C(=O)N(c2ccc4ccn(C)c4c2)C3)CC1` [Example 124649] was tested, and the “Fold Increase” value was 1.119.

With `COc1ccc2c(c1)C(=O)N(c1ccc3scc(Br)c3c1)C2` [Example 122434] the pEC50 was 6.42 and the “Fold Increase” value was 1.718.

`CC(=O)Nc1cccc2c1C(=O)N(c1ccc3ccn(C)c3c1)C2` [Example 121082] was tested, and the pEC50 was 6.08 and the “Fold Increase” value was 1.496.

`O=C1c2cc(Br)ccc2CN1c1ccc2sccc2c1` [Example 122558] was tested, and the pEC50 was 7.03 and the “Fold Increase” value was 1.469.

With `O=C1c2cc3c(cc2CN1c1ccc(Br)cn1)OCCO3` [Example 118736] the pEC50 was 6.86 and the “Fold Increase” value was 1.413.

With `Cn1ccc2ccc(N3Cc4ccc(Br)cc4C3=O)cc21` [Example 120117] the pEC50 was 6.08 and the “Fold Increase” value was 1.519.

For `Cn1ccc2ccc(N3Cc4ccc(N)cc4C3=O)cc21` [Example 121256], the pEC50 was 5.80 and the “Fold Increase” value was 1.638.

`COc1ccc2c(c1)C(=O)N(c1ccc3c(c1)NCCN3)C2` [Example 121921] was tested, and the pEC50 was 6.66 and the “Fold Increase” value was 1.365.

For `COc1ccc2c(c1)C(=O)N(c1ccc(C)cn1)C2` [Example 118553], the pEC50 was 6.78 and the “Fold Increase” value was 1.308.

`Cc1cc2cc(N3Cc4ccc(O)cc4C3=O)ccc2n1C` [Example 123010] was tested, and the pEC50 was 6.52 and the “Fold Increase” value was 1.336.

For `CCc1ccc2c(c1)C(=O)N(c1ccc3ccn(C)c3c1)C2` [Example 124169], the pEC50 was 6.82 and the “Fold Increase” value was 1.673.

For `Cn1ccc2cc(N3Cc4ccc(-c5cncnc5)cc4C3=O)ccc21` [Example 122181], the “Fold Increase” value was 1.169.

`CC(C)Oc1ccc2c(c1)C(=O)N(c1ccc3cc[nH]c3c1)C2` [Example 125095] was tested, and the pEC50 was 8.52 and the “Fold Increase” value was 1.134.

With `COc1ccc2c(c1)CN(c1ccc3ccn(C)c3c1)C2=O` [Example 119870] the pEC50 was 6.62 and the “Fold Increase” value was 1.83.

With `Cn1ccc2ccc(N3Cc4ccc(S(C)(=O)=O)cc4C3=O)cc21` [Example 124168] the “Fold Increase” value was 1.462.

For `Cc1cc2cc(N3Cc4ccc(N5CCCC5)cc4C3=O)ccc2n1C(C)C` [Example 125603], the “Fold Increase” value was 0.995.

`CCc1cc2cc(N3Cc4ccc(OC)cc4C3=O)ccc2n1C` [Example 124327] was tested, and the pEC50 was 6.25 and the “Fold Increase” value was 1.361.

`Cc1ccc(N2Cc3cc4c(cc3C2=O)OCCO4)cn1` [Example 118554] was tested, and the pEC50 was 6.15 and the “Fold Increase” value was 1.364.

In the case of `Cn1ccc2ccc(N3Cc4c(Br)cccc4C3=O)cc21` [Example 120290], the pEC50 was 6.22 and the “Fold Increase” value was 1.386.

`COc1ccc2c(c1)C(=O)N(c1ccc3c(c1)cc(C(=O)N1CCCC1)n3C)C2` [Example 123935] was tested, and the “Fold Increase” value was 1.124.

`Cn1ccc2cc(N3Cc4ccc(NC(=O)c5ccccc5)cc4C3=O)ccc21` [Example 124862] was tested, and the “Fold Increase” value was 1.07.

With `COc1ccc2c(c1)C(=O)N(c1ccc3cccnc3c1)C2` [Example 122821] the pEC50 was 7.43 and the “Fold Increase” value was 1.401.

With `COc1ccc(-c2ccc3c(c2)C(=O)N(c2ccc4c(ccn4C)c2)C3)cc1` [Example 122040] the “Fold Increase” value was 1.148.

In the case of `COc1ccc2c(c1)C(=O)N(c1ccc3c(c1)cc(C(C)C)n3C)C2` [Example 124773], the “Fold Increase” value was 1.255.

With `COc1ccc2c(c1)C(=O)N(c1ccc3c(c1)OC(F)(F)O3)C2` [Example 116565] the pEC50 was 6.28 and the “Fold Increase” value was 1.3.

For `COc1ccc2c(c1)C(=O)N(c1ccc3c(ccn3C(F)F)c1)C2` [Example 121788], the “Fold Increase” value was 1.19.

In the case of `Cn1ccc2ccc(N3Cc4cc(Br)ccc4C3=O)cc21` [Example 120118], the pEC50 was 6.34 and the “Fold Increase” value was 1.893.

With `COc1ccc2c(c1)C(=O)N(c1ccc3c(c1)c(Br)cn3C)C2` [Example 122044] the pEC50 was 6.80 and the “Fold Increase” value was 1.383.

With `Cn1ccc2ccc(N3Cc4ccc(-c5cncnc5)cc4C3=O)cc21` [Example 122433] the pEC50 was 5.97 and the “Fold Increase” value was 1.333.
